# According to article PMC4105752 (RNA, 2014):
# pKd: −log10 of the molar value.
# Biological target: T1, TbEIF4E5 (TbE5) (Trypanosoma brucei, UniProt Q38B99)
# T1 sequence (Q38B99 1-195): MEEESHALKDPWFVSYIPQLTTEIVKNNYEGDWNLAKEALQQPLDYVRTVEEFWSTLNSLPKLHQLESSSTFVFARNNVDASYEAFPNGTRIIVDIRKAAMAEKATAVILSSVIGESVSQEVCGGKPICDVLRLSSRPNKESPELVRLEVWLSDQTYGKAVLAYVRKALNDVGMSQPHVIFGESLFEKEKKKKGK
# Assay: intrinsic protein fluorescence quenching titration
# Format: binding
pKd,Compound,"Kas (50 mM HEPES/KOH pH 7.2, 100 mM KCl, 0.5 mM EDTA, 2 mM DTT, 20 °C)"
~4.57,Nc1nc2c(ncn2[C@@H]2O[C@H](COP(=O)(O)OP(=O)(O)OP(=O)(O)O)[C@@H](O)[C@H]2O)c(=O)[nH]1 [GTP],
,cap 4,0.55 ± 0.01
5.81,C[n+]1cn([C@@H]2O[C@H](COP(=O)(O)OP(=O)(O)OP(=O)(O)O)[C@@H](O)[C@H]2O)c2nc(N)[nH]c(=O)c21 [m^7GTP],
5.08,C[n+]1cn([C@@H]2O[C@H](COP(=O)(O)OP(=O)(O)OP(=O)(O)OC[C@H]3O[C@@H](n4cnc5c(N)ncnc54)[C@H](O)[C@@H]3O)[C@@H](O)[C@H]2O)c2nc(N)[nH]c(=O)c21 [m^7GpppA],
